Data published in US20210205264A1, “USE OF DELTA-TOCOTRIENOL FOR TREATING CANCER” (H. LEE MOFFITT CANCER CENTER & RESEARCH INSTITUTE INC., priority 2018, published 2021).

What was measured:
[1] = design: species or system humans; conditions: in vivo
Protocol: Two phase I dose-escalation studies were performed determining safety, pharmacokinetics, and pharmacodynamics after twice daily oral administration of d-T3 for 14 consecutive days before surgery in patients with resectable pancreatic exocrine neoplasia and in healthy individuals. […] Based on experience from clinical trials and in animal studies, a dose of 400 mg twice daily was selected for the trial. It should be noted that d-T3 concentration is several times higher in fatty tissues such as the pancreas and colon.

CCSCs = assay: Annexin V FITC/PI flow cytometry apoptosis assay in CCSCs; type: cell-based, human; conditions: 24 hours; d-T3 50 μM, aspirin 5 mM
Protocol: (§1) FIGS. 10A, 10B, 10C, and 10D show induction of apoptosis measured by flow cytometry (FIG. 10A) and confocal microscopy (FIG. 10B) in CCSCs after treatment with vehicle, aspirin, d-T3, and aspirin+d-T3. Effect of BID inhibitor on apoptosis in CCSCs after treatment with aspirin or d-T3 (FIG. 10C). Induction oft-BID in CCSCs after treatment with vehicle, aspirin, d-T3, and aspirin+d-T3 (FIG. 10D).
(§2) d-T3 can induce selective killing of CCSCs through the BH3 interacting-domain death agonist (BID). […] It should be noted that these in vitro results are consistent with the in vivo observation of the selective induction of apoptosis in APC mutant colon crypt cells in the ApcMin/+ mice but not in the normal intestinal cells of the AOM rat CRC model or NOD/SCID mice. […] Although the proapoptotic activity of d-T3 is a consistent observation of d-T3 anticancer activity in all of the published reports, the mechanism by which d-T3 induces apoptosis is poorly understood. Apoptotic death is regulated by the death receptor (extrinsic) and mitochondrial (intrinsic) pathways. These 2 pathways crosstalk under certain conditions through caspase-8-mediated cleavage of BID, a BH3-only Bcl-2 family member. The activated and truncated BID (tBID) then engages the intrinsic pathway for efficient apoptosis induction. To obtain preliminary information regarding the mechanisms by which d-T3 induces apoptosis in CCSCs, the activation of BID was measured after 24-hour treatment with vehicle, aspirin (5 mM), d-T3 (50 μM), and aspirin combined with d-T3 in CCSCs by Western blotting.

HCT-116 = assay: Apoptosis induction in HCT-116; type: cell-based, human
NCM-460 = assay: Apoptosis induction in NCM-460; type: cell-based
BID = assay: Activation of BID (tBID) by Western blotting in CCSCs; type: cell-based, human; conditions: 24-hour treatment; aspirin 5 mM, d-T3 50 μM
Protocol: as §1
as §2, with “These 2 pathways crosstalk under certain conditions through caspase-8-mediated cleavage of BID, a BH3-only Bcl-2 family member. The activated and truncated BID (tBID) then engages the intrinsic pathway for efficient apoptosis induction.” left out

hCAS = biological target: T1, hCAS (Homo sapiens, UniProt P55060); assay: Streptavidin bead capture of hCAS from treated MiaPaCa-2 cells; type: binding; conditions: derived from biotinylated probes
T1 construct: endogenous in cells; host or cells: MiaPaCa-2 human pancreatic cancer cells
T1 sequence (P55060 1-971): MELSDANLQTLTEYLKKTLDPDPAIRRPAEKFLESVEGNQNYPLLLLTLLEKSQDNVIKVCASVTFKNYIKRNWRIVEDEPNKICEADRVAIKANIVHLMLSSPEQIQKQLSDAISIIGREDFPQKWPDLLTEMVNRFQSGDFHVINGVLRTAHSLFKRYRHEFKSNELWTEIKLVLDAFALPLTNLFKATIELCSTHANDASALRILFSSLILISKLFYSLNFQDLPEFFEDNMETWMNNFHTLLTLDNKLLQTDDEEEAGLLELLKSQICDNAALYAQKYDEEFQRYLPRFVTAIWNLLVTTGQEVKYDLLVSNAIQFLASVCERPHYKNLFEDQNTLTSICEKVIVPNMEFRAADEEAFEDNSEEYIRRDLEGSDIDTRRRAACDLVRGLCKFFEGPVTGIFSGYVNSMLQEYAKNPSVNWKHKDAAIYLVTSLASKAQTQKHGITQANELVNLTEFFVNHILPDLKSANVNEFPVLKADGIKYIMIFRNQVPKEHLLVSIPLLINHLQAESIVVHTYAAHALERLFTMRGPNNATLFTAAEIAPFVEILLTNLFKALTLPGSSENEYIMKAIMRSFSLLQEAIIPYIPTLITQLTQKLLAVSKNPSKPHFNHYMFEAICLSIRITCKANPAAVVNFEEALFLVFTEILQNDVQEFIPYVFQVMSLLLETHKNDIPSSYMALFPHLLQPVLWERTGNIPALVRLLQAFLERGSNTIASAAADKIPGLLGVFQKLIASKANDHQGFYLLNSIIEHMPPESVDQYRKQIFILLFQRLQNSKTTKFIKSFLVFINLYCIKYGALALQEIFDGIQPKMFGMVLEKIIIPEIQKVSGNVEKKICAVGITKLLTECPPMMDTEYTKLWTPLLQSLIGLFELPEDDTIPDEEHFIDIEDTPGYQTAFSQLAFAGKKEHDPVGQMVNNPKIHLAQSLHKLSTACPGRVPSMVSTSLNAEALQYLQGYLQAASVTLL
Protocol: To confirm that δ-T3 binds to hCAS in intact cells, biotinylated δ-T3 (B-δ-T3) was prepared by chemically coupling the —OH group of δ-T3 to the —COOH of biotin using a PEG-iodoactamide linker (FIG. 18).
MiaPaCa-2 human pancreatic cancer cells were treated for 24 hours with biotin alone (B), B-δ-T3 or B-TOCOPH. The cells were then lysed, and the lysates incubated with streptavidin beads, and the captured proteins processed for Western blotting.

[2] = system: MiaPaCa-2 cells stably expressing hCAS; assay: Cell death in MiaPaCa-2 cells stably over-expressing hCAS; type: cell-based, human; conditions: hCAS over-expression, p<0.02
From the text: To determine whether hCAS over-expression can rescue from δ-T3 effects, MiaPaCa-2 cells stably expressing hCAS were generated by transfecting these cells with the hCAS gene-containing plasmid pCMV6-AC-GFP (Cat #RG211478, […]) and selecting the cells stably expressing hCAS under G418 pressure. MiaPaCa-2 cells expressing the same plasmid without the hCAS gene were also generated as empty vector control. […] The inability of over-expression to entirely overcome the effect of δ-T3 treatment further illustrates the robustness of a δ-T3 therapeutic approach.

HPNE cells = assay: Anchorage-independent growth / colony formation of HPNE cells over-expressing hCAS; type: cell-based; conditions: d-T3 concentration escalation

In the case of `CC(C)=CCC/C(C)=C/CC/C(C)=C/CC[C@]1(C)CCc2cc(O)cc(C)c2O1` [d-T3, δ-tocotrienol], the AUC ([1]; human, po) is reported as ≤ 175 µM·h, the Cmax ([1]; human, po) is reported as ≤ 17 µM and the half-life ([1]; human, po) is reported as “approximately 4 hours”. For the same compound, the dose-limiting toxicities [1] was “no dose-limiting toxicities”, the induction of apoptosis (CCSCs) was “much more effective than aspirin” and the apoptosis (HCT-116) was “significantly induced apoptosis”. For the same compound, the apoptosis (NCM-460) was “no effect”, the “activation of tBID” value (BID) was “significantly activated” and the “binds hCAS in intact pancreatic cancer cells” value (hCAS) was “binds hCAS”. The “cancer cell death versus the hCAS vehicle” value [2] was “induces significant cancer cell death”, the “dose response on growth / colony formation” value (HPNE cells) was “potent dose-dependent effect” and the “dose response on growth / colony formation” value (HPNE cells; listed as δ-T3) was “robust dose-response”.
